Assay results as given in patent publication US20150197497A1, “SELECTIVE INHIBITORS OF HISTONE DEACETYLASE ISOFORM 6 AND METHODS THEREOF” (DANA-FARBER CANCER INSTITUTE, INC., priority 2011, published 2015).

Columns and labels:
HDAC6 = molecular target: T1, HDAC6 (Homo sapiens, UniProt Q9UBN7); assay: In vitro HDAC enzyme inhibition assay, HDAC6; assay type: biochemical; conditions: recombinant full-length HDAC6, substrate MAZ1600 9 μM
T1 construct: Recombinant, full-length HDAC protein (BPS Biosciences) was incubated with fluorophore conjugated substrate; purchased BPS Biosciences
T1 sequence (Q9UBN7 1-1215): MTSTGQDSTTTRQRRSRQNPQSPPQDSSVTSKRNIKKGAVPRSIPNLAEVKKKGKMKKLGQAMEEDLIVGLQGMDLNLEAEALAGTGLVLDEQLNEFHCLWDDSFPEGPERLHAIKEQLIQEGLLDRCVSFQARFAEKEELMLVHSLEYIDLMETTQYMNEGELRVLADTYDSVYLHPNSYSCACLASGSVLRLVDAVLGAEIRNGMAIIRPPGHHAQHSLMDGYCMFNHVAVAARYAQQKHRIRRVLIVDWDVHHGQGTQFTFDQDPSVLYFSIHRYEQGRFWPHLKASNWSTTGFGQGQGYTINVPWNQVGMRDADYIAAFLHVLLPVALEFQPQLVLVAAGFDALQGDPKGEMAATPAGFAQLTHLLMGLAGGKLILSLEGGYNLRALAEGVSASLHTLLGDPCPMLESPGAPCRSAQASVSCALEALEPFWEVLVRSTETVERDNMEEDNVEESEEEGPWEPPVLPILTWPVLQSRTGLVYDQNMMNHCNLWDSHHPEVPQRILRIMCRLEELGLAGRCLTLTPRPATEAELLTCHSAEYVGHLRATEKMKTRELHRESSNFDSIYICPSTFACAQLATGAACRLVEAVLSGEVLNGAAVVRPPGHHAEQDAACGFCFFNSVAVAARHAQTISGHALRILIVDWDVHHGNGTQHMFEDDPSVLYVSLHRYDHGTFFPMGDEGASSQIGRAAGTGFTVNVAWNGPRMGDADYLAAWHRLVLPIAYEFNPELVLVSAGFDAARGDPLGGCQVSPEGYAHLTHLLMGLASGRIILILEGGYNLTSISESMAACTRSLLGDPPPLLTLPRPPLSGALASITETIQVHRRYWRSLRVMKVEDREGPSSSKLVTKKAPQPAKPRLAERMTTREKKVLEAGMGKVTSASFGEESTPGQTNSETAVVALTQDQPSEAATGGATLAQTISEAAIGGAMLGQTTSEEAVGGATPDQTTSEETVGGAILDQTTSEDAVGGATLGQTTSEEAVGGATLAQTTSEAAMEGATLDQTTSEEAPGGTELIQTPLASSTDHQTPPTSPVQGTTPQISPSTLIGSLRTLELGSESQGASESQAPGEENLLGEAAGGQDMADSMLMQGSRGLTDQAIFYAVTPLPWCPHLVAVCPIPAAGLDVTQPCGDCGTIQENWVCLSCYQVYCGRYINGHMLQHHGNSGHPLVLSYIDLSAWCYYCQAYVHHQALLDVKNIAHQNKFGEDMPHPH
Protocol: In vitro Histone Deacetylase enzyme assays were performed using Class I (isoforms: HDAC1, HDAC2, HDAC3 and HDAC8), class IIa (isoforms: HDAC4, HDAC5, HDAC7 and HDAC9) and class IIb (isoform HDAC6).
HDAC activities were determined in vitro with an optimized homogenous assay performed in a 384-well plate. Recombinant, full-length HDAC protein (BPS Biosciences) was incubated with fluorophore conjugated substrate, MAZ1600 and MAZ1675, at Km=[S]. […] Reactions were performed in assay buffer (50 mM HEPES, 100 mM KCl, 0.001% Tween-20, 0.05% BSA, 200 μM tris(2-carboxyethyl)phosphine (TCEP), pH 7.4) and followed for fluorogenic release of 7-amino-4-methylcoumarin from substrate upon deacetylase and trypsin enzymatic activity. Fluorescence measurements were obtained every five minutes using a multilabel plate reader and plate-stacker (Envision; Perkin-Elmer). Each plate was analyzed by plate repeat, and the first derivative within the linear range was imported into analytical software (Spotfire DecisionSite and GraphPad Prism). Replicate experimental data from incubations with inhibitor were normalized to controls.

acetylated tubulin = assay: High-content image analysis of induction of acetylated tubulin in A549 cells
Protocol: Cells were treated with each test HDACi compound with an automated pin transfer instrument (Janus, Perkin Elmer) and incubated for 8 hours. […] Fixation solution was aspirated and 90 μL of washing solution (0.1% Triton X-100 in PBS) was added prior to 10 minute incubation at 4° C. Washing solution was aspirated and cells were incubated at 4° C. for about 1 hour in blocking solution (0.1% Triton X-100+2% BSA in PBS). Washing solution was aspirated, and cells were incubated for about 1 hour at 4° C. in primary antibody for acetylated-tubulin (Sigma T7451) and acetylated-histone (Cell Signaling #9441L) at a 1:1000 dilution in blocking solution. Primary antibody solution was aspirated, and cells were washed three times in 90 μL of washing solution. […] Secondary antibody and nuclear staining solution was aspirated and cells were washed three times in 90 μL of washing solution. After the third wash, 50 μL of PBS was added to each well. Image acquisition was done on a high content imaging microscope (ImageXpress Micro, Molecular Devices), and image analysis (MetaXpress, Molecular Devices) was performed to obtain average acetylated-tubulin and acetylated-histone signal per cell based on treatment. Replicate experimental data from incubations with inhibitor were normalized to DMSO controls.

acetylated histones = assay: High-content image analysis of induction of acetylated histones in A549 cells; conditions: for EC50: Homo sapiens, A549, 8 h, read-out: EC50 for half-maximal induction of acetylated histones (AcHistone)

SMILES	IC50 (HDAC6)	EC50 (acetylated tubulin; Homo sapiens, A549, 8 h, read-out: EC50 for half-maximal induction of acetylated tubulin (AcTubulin))	AcHistone/AcTubulin in cell selectivity toward HDAC6 (acetylated tubulin; ratio of EC50 acetylated histone to EC50 acetylated tubulin, A549 cells)	EC50 (acetylated histones)	levels of acetylated tubulin, dose response (in words) (acetylated tubulin; A549 cells, FIG. 11)	levels of acetylated histone, dose response (in words) (acetylated histones; A549 cells, FIG. 11)
Cc1ccc2c(c1)nnn2Cc1ccc(C(=O)NO)cc1 [C2, N-hydroxy-4-((5-methyl-1H-benzo[d][1,2,3]triazol-1-yl)methyl)benzamide]	1.47 µM	0.124 µM	20.3	2.52 µM	–	–
O=C(CCCCCCC(=O)Nc1ccccc1)NO [SAHA, suberoylanilide hydroxamic acid, reference compound]	–	–	–	0.143 µM	dose-dependent increase	dose-dependent increase
